Assay results taken from patent US20200017496A1 (priority 2017, published 2020).
Like-named read-outs stand apart in the source and are kept apart here.

What was measured:
Assay in all cases: MIC of compounds alone and combined with antibacterials, broth microdilution (CLSI)
Format in all cases: cell-based
[1] = system: Providencia stuartii (PST) isolates; details: for MIC: Providencia stuartii, read-out: MIC
How it was run: (§1)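 Inoculum 5·10^5 CFU/mL (final), log phase, ca-MHB; 16-20 h, 35° C, ambient air. MIC = lowest conc. with no visible growth; ATB MIC read at each compound level.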

[2] = system: Morganella morganii (MMO) isolates; details: for MIC: Morganella morganii
How it was run: as §1

[3] = system: Citrobacter freundii (CFR) isolates; details: for MIC: Citrobacter freundii, read-out: MIC
How it was run: as §1

C=CC1=C(C(=O)O)N2C(=O)[C@@H](NC(=O)/C(=N\OCC(=O)O)c3csc(N)n3)[C@H]2SC1 [FIX, Cefixime]
MIC ATB in combination ([1]; PST UFR94, AF1 @ 4 μg/mL): <=0.25 μg/mL | MIC ATB in combination ([1]; PST UFR94, AF1 @ 8 μg/mL): <=0.25 μg/mL | MIC ATB in combination ([1]; PST UFR95, AF1 @ 4 μg/mL): <=0.25 μg/mL | MIC ATB in combination ([1]; PST UFR95, AF1 @ 8 μg/mL): <=0.25 μg/mL | MIC ATB in combination ([1]; PST UFR235, AF1 @ 4 μg/mL): 0.125 µg/mL | MIC ATB in combination ([1]; PST UFR235, AF1 @ 8 μg/mL): 0.063 µg/mL | MIC ([1]; PST UFR235, alone): 512 µg/mL | MIC ([1]; strain PST UFR94 (CTX-M-14), ATB alone): 0.5 µg/mL | MIC ([1]; strain PST UFR94 (CTX-M-14), CLA @ 4 μg/ml+ ATB): 2 µg/mL | MIC ([1]; strain PST UFR95 (TEM-24), ATB alone): 4 µg/mL | MIC ([1]; strain PST UFR95 (TEM-24), CLA @ 4 μg/ml+ ATB): 8 µg/mL | MIC ([1]; strain PST UFR235 (VEB-1), ATB alone): 512 µg/mL | MIC ([1]; strain PST UFR235 (VEB-1), CLA @ 4 μg/ml+ ATB): 8 µg/mL | MIC ATB in combination ([2]; MMO 200321, AF1 @ 4 μg/mL): 4 µg/mL | MIC ATB in combination ([2]; MMO 200321, AF1 @ 8 μg/mL): 4 µg/mL | MIC ATB in combination ([2]; MMO UFR144, AF1 @ 4 μg/mL): 2 µg/mL | MIC ATB in combination ([2]; MMO UFR144, AF1 @ 8 μg/mL): 2 µg/mL | MIC ATB in combination ([2]; MMO UFR240, AF1 @ 4 μg/mL): <=0.25 μg/mL | MIC ATB in combination ([2]; MMO UFR240, AF1 @ 8 μg/mL): <=0.25 μg/mL | MIC ATB in combination ([2]; MMO UFR241, AF1 @ 4 μg/mL): 2 µg/mL | MIC ATB in combination ([2]; MMO UFR241, AF1 @ 8 μg/mL): <=0.25 μg/mL | MIC ATB in combination ([2]; MMO UFR242, AF1 @ 4 μg/mL): 4 µg/mL | MIC ATB in combination ([2]; MMO UFR242, AF1 @ 8 μg/mL): 2 µg/mL | MIC ATB in combination ([2]; MMO UFR243, AF1 @ 4 μg/mL): 0.5 µg/mL | MIC ATB in combination ([2]; MMO UFR243, AF1 @ 8 μg/mL): <=0.25 μg/mL | MIC ATB in combination ([2]; MMO UFR244, AF1 @ 4 μg/mL): <=0.25 μg/mL | MIC ATB in combination ([2]; MMO UFR244, AF1 @ 8 μg/mL): <=0.25 μg/mL | MIC ATB in combination ([2]; MMO UFR245, AF1 @ 4 μg/mL): 2 µg/mL | MIC ATB in combination ([2]; MMO UFR245, AF1 @ 8 μg/mL): <=0.25 μg/mL | MIC ATB in combination ([2]; MMO UFR246, AF1 @ 4 μg/mL): 2 µg/mL | MIC ATB in combination ([2]; MMO UFR246, AF1 @ 8 μg/mL): 1 µg/mL | MIC ATB in combination ([2]; MMO UFR247, AF1 @ 4 μg/mL): 0.5 µg/mL | MIC ATB in combination ([2]; MMO UFR247, AF1 @ 8 μg/mL): 0.25 µg/mL | MIC ([2]; strain MMO 200321 (TEM-1, CTX-M-15, OXA-1), ATB alone): > 128 µg/mL | MIC ([2]; strain MMO 200321 (TEM-1, CTX-M-15, OXA-1), CLA @ 4 μg/ml+ ATB, read-out: MIC): 32 µg/mL | MIC ([2]; strain MMO UFR144 (TEM-1, CTX-M-15), ATB alone): > 128 µg/mL | MIC ([2]; strain MMO UFR144 (TEM-1, CTX-M-15), CLA @ 4 μg/ml+ ATB, read-out: MIC): 32 µg/mL | MIC ([2]; strain MMO UFR240 (CTX-M-9), ATB alone, read-out: MIC): 1 µg/mL | MIC ([2]; strain MMO UFR240 (CTX-M-9), CLA @ 4 μg/ml+ ATB, read-out: MIC): 8 µg/mL | MIC ([2]; strain MMO UFR241 (TEM-1, CTX-M-15), ATB alone): > 128 µg/mL | MIC ([2]; strain MMO UFR241 (TEM-1, CTX-M-15), CLA @ 4 μg/ml+ ATB, read-out: MIC): 32 µg/mL | MIC ([2]; strain MMO UFR242 (TEM-52), ATB alone, read-out: MIC): 1020 µg/mL | MIC ([2]; strain MMO UFR242 (TEM-52), CLA @ 4 μg/ml+ ATB, read-out: MIC): 64 µg/mL | MIC ([2]; strain MMO UFR243 (DHA-1), ATB alone, read-out: MIC): 8 µg/mL | MIC ([2]; strain MMO UFR243 (DHA-1), CLA @ 4 μg/ml+ ATB, read-out: MIC): 32 µg/mL | MIC ([2]; strain MMO UFR244 (DHA-1), ATB alone, read-out: MIC): 4 µg/mL | MIC ([2]; strain MMO UFR244 (DHA-1), CLA @ 4 μg/ml+ ATB, read-out: MIC): 8 µg/mL | MIC ([2]; strain MMO UFR245 (DHA-1), ATB alone, read-out: MIC): 32 µg/mL | MIC ([2]; strain MMO UFR245 (DHA-1), CLA @ 4 μg/ml+ ATB, read-out: MIC): 64 µg/mL | MIC ([2]; strain MMO UFR246 (DHA-1), ATB alone, read-out: MIC): 32 µg/mL | MIC ([2]; strain MMO UFR246 (DHA-1), CLA @ 4 μg/ml+ ATB, read-out: MIC): 64 µg/mL | MIC ([2]; strain MMO UFR247 (DHA-1), ATB alone, read-out: MIC): 16 µg/mL | MIC ([2]; strain MMO UFR247 (DHA-1), CLA @ 4 μg/ml+ ATB, read-out: MIC): 32 µg/mL | MIC ATB in combination [3]: >128 µg/mL | MIC ATB in combination ([3]; CFR UFR10, AF1 @ 4 μg/mL): <=0.25 μg/mL | MIC ATB in combination ([3]; CFR UFR10, AF1 @ 8 μg/mL): <=0.25 μg/mL | MIC ATB in combination ([3]; CFR UFR11, AF1 @ 4 μg/mL): 8 µg/mL | MIC ATB in combination ([3]; CFR UFR11, AF1 @ 8 μg/mL): 4 µg/mL | MIC ATB in combination ([3]; CFR UFR83, AF1 @ 8 μg/mL): 128 µg/mL | MIC ATB in combination ([3]; CFR UFR146, AF1 @ 4 μg/mL): 1 µg/mL | MIC ATB in combination ([3]; CFR UFR146, AF1 @ 8 μg/mL): 1 µg/mL | MIC ATB in combination ([3]; CFR UFR248, AF1 @ 4 μg/mL): <=0.25 μg/mL | MIC ATB in combination ([3]; CFR UFR248, AF1 @ 8 μg/mL): <=0.25 μg/mL | MIC ATB in combination ([3]; CFR UFR249, AF1 @ 4 μg/mL): <=0.25 μg/mL | MIC ATB in combination ([3]; CFR UFR249, AF1 @ 8 μg/mL): <=0.25 μg/mL | MIC ATB in combination ([3]; CFR UFR250, AF1 @ 4 μg/mL): <=0.25 μg/mL | MIC ATB in combination ([3]; CFR UFR250, AF1 @ 8 μg/mL): <=0.25 μg/mL | MIC ([3]; ATB alone, strain CFR UFR253 (TEM-1, SHV-12, OXA-48)): > 128 µg/mL | MIC ([3]; ATB alone, strain CFR UFR254 (VEB-1b, OXA-48, qnrA)): 32 µg/mL | MIC ([3]; ATB combined with CLA @ 4 μg/ml, strain CFR UFR253 (TEM-1, SHV-12, OXA-48)): > 128 µg/mL | MIC ([3]; ATB combined with CLA @ 4 μg/ml, strain CFR UFR254 (VEB-1b, OXA-48, qnrA)): 16 µg/mL | MIC ([3]; CFR UFR250, alone): > 128 µg/mL | MIC ([3]; strain CFR UFR10 (OXA-48), ATB alone): > 128 µg/mL | MIC ([3]; strain CFR UFR10 (OXA-48), CLA @ 4 μg/ml+ ATB): 32 µg/mL | MIC ([3]; strain CFR UFR11 (TEM-1, OXA-1, OXA-48), ATB alone): 32 µg/mL | MIC ([3]; strain CFR UFR11 (TEM-1, OXA-1, OXA-48), CLA @ 4 μg/ml+ ATB): 32 µg/mL | MIC ([3]; strain CFR UFR83 (TEM-3, AmpC), ATB alone): > 128 µg/mL | MIC ([3]; strain CFR UFR83 (TEM-3, AmpC), CLA @ 4 μg/ml+ ATB): > 128 µg/mL | MIC ([3]; strain CFR UFR146 (TEM-1, KPC-2), ATB alone): 64 µg/mL | MIC ([3]; strain CFR UFR146 (TEM-1, KPC-2), CLA @ 4 μg/ml+ ATB): 64 µg/mL | MIC ([3]; strain CFR UFR248 (CTX-M-15), ATB alone): > 128 µg/mL | MIC ([3]; strain CFR UFR248 (CTX-M-15), CLA @ 4 μg/ml+ ATB): 4 µg/mL | MIC ([3]; strain CFR UFR249 (TEM-1, CTX-M-15), ATB alone): > 128 µg/mL | MIC ([3]; strain CFR UFR249 (TEM-1, CTX-M-15), CLA @ 4 μg/ml+ ATB): 2 µg/mL | MIC ([3]; strain CFR UFR250 (TEM-1, SHV-28, CTX-M-15), ATB alone): > 128 µg/mL | MIC ([3]; strain CFR UFR250 (TEM-1, SHV-28, CTX-M-15), CLA @ 4 μg/ml+ ATB): 2 µg/mL
